The subject of test [1] is patient presenting with hyperthyroidism due to multinodular thyroid hyperplasia, and morning allergic rhinitis. The experiment in a line: Case No. 2: TSH / free T4 and allergic rhinitis in a patient with hyperthyroidism. Format: in vivo, human. The note with it: for course of hyperthyroidism / thyroid hormone level under treatment: a few days of Basdene, 10 days of Neomercazole; for TSH: normal 0.2 to 4; for T4f: normal 10 to 25. The text has this: A patient presenting with hyperthyroidism due to multinodular thyroid hyperplasia, and morning allergic rhinitis.
The normal levels are 0.2 to 4 for TSH and 10 to 25 for T4f. The TSH is abnormally low and the free T4 abnormally high. The patient receives treatment with a synthetic thyroid inhibitor, namely Basdene 9 on its own, starting on February 22, at increasing doses of 1 tbl on the 1st day, 2 tbl on the 2nd day and then 3 tbl per day. on 3 March TSH: 0.02
On March 7, the patient is seen again by the consultant and, in place of Basdene®, Neo-mercazole® is prescribed at doses of 3 tbl 3 times a day:
On March, 20 the patient is seen again and the following is added to the Neo-mercazole treatment for the allergic rhinitis:
Natrium muriaticum 6DH, 3 tbl/1 for 7 days, then
Natrium muriaticum 4CH, 3 granules/1 for 15 days.
In order to know whether it is the Natrium muriaticum or the Neomercazole 9 which has normalized the thyroid functions, the Neo-mercazole® is suddenly withdrawn, which, if it is the Neo-mercazole® which has lowered the T4f, should have the effect of raising it immediately to 30, and the regular administration of Natrium muriaticum 4CH is continued on April 13.
Natrium muriaticum 6DH: 3tbl/day from March 20 to April 11, then Natrium muriaticum 4CH: 3 granules/day from April 11 to April 28. On April 28, the patient is seen again by the consultant and the prescribed dose of Natrium muriaticum is further modified, being increased to Natrium muriaticum 5CH: 3 granules a day. The Neo-mercazole® was of course never restarted. The effect of this change in doses of Natrium muriaticum is to further lower the thyroid hormone:
The following dose of Natrium Muriaticum 5CH is still continued from this time on: 3 granules a day.
There was no cancer on the operated part. On August 1 the result of this operation is a T4f of 13.8, which is now near the lower limit of the norm (the norm being 10 to 25). A tendency towards hypothyroidism might be feared.

Test [2] has as its system child suffering from juvenile chronic polyarthritis. The experiment in a line: Case No. 3: clinical course of juvenile chronic polyarthritis. The note with it: 1 tbl of 250 mg a day, before homeopathic treatment; disease worsens. Format: in vivo, human.
The mark [3] stands for this setting: on 17 March, after 10 days of Neo-mercazole 3 tbl 3 times a day.

Here are results for three molecules from patent US20020025314A1, “Homeopathic compositions for the treatment of viral and metabolic deseases” (priority 1992, published 2002).

For `Oc1cc(Cc2ccccc2)nc(S)n1` [Basdene], the “course of hyperthyroidism / thyroid hormone level under treatment” value in test [1] is “remained identical and even become slightly worse”. Besides, the TSH in test [1] (on 3 March, Basdene on its own from February 22, up to 3 tbl per day, 0.02 before treatment) amounted to 0.02. This molecule also came in with a T4f in test [1] (on 3 March, Basdene on its own from February 22, up to 3 tbl per day, 35 before treatment) of 36.8.

As to `COc1ccc2cc([C@H](C)C(=O)O)ccc2c1` [Naprosyn], in test [2], the “suppression of polyarticular symptoms” value is reported as “not sufficient to suppress the symptoms”.

Regarding `CCOC(=O)n1ccn(C)c1=S` [Neo-mercazole], the “course of hyperthyroidism / thyroid hormone level under treatment” value in test [1] is given as “no improvement”. In test [1] (setting [3]), the TSH is reported as 0.02 and the T4f turned out to be 33.8.
